Source: patent US20240060131A1, “METHOD FOR IDENTIFYING AND/OR REGULATING SENESCENCE” (INSTITUTE OF ZOOLOGY, CHINESE ACADEMY OF SCIENCES, priority 2020, published 2024)
Entries after “also recorded” stand apart in the source; their conditions may differ.

Key:
Assay type in all cases: cell-based, human
HERVK-LTR5HS = assay: ChIP-qPCR of 5 mC occupation in HERVK-LTR5HS in treated hMPCs; conditions: hMPCs of early passage; vs cells not treated
Description: (§1) For 5-azacytidine (5-AZA) treatment, hMPCs were seeded (generation 0 (P0) after treatment), and treated by […] 5-AZA for 4 days, followed by passage and culture in fresh medium. At P2 after treatment (6 days after 5-AZA treatment), cells was used for Ki67 immunofluorescence, SA-O-gal staining and RNA/DNA extraction.
Cells were fixed in 1% formaldehyde dissolved in PBS at room temperature for 10 min, and then, quenched by 125 mM glycine. Cells were lysed on ice for 10 min, and subjected to ultrasonic treatment with Covaris S220. Collected supernatant was incubated with Dynabeads Protein A (Life Technologies, 10001D) pre-mixed with 2.3 μg specified antibody at 4° C. overnight. After washing, samples were digested by Protease K (New England Biolabs), eluted and cross-link-reversed on thermal mixer at 68° C. for 2 h. DNA was extracted with phenol-chloroform-isoamylol, and eluted DNA was analyzed by qPCR.
5-AZA (a DNA methyltransferase inhibitor (DNMTi)) was used to treat hMPCs of early passage. ChIP-qPCR and RT-qPCR analyses were performed on treated cells, cells not treated by 5-AZA were used as control.

hMPCs = assay: Analysis of classical aging characteristics (SA-β-gal, Ki67, clonal expansion) in hMPCs; conditions: hMPCs after HERVK activation or 5-AZA treatment
Description: Cells seeded on coverslip (Thermo Fisher Scientific) were washed by PBS, fixed in 4% paraformaldehyde (PFA), permeabilized in 0.4% Triton X-100, blocked by 10% donkey serum. The coverslip was incubated with primary antibody at 4° C. in blocking buffer, then incubated with secondary antibody at room temperature for 1 h. Nucleus was labelled by Hoechst 33342 (Invitrogen).
as §1
For lentivirus transduction, hMPCs were seeded (P0 after treatment) and incubated with lentivirus in the presence of polybrene (Sigma-Aldrich) for 24 h. After two passages, treated cells were used for Ki67 immunofluorescence, SA-β-gal staining and RNA/DNA extraction.
5 thousand cells were seeded in one well of 6-well plate (Corning) cover with gelatin (Sigma), and cultured for about 10 days. Cells were fixed by 4% PFA, stained by 10% crystal violet for 30 min. Relative cell integral density was calculated by ImageJ software.
Cells were fixed by a buffer containing 2% (w/v) formaldehyde and 0.2% (w/v) glutaraldehyde for 5 min, and treated by staining buffer containing 1 mg/mL X-gal at 37° C. overnight.
In particular, relative percentage of cells positive for senescence associated β-galactosidase (SA-β-gal) was increased, the number of Ki67 positive cells was decreased and the clonal expansion ability was reduced (as shown by FIGS. 12C-12E).

cGAS-STING pathway = assay: cGAS-STING innate immune pathway and SASP in hMPCs (Western blot, RT-qPCR); conditions: hMPCs with activated endogenous HERVK
Description: (§2) Cells were lysed in 1×SDS buffer (100 mM Tris-HCl, pH 6.8, 10% glycerol, 2% SDS and 2%2-mercaptoethanol), boiled for 10 min at 105° C. Protein concentration was measured by BCA kit. Cell lysate was subjected to SDS-PAGE electrophoresis, then transferred to PVDF membrane (Millipore). The membrane was incubated with primary antibody, incubated with secondary antibody conjugated to HRP after washing, then blotted with substrate, the substrate was the mixture of 1000 μL substrate A and 3 μL substrate B (substrate A: 0.2 mM cumaric acid, 1.25 mM luminal, 0.1 M Tris-HCl, pH 8.5; substrate B: 3% H2O2) or Super Signal West Femto Maximum Sensitivity Substrate (Thermo Fisher Scientific). Images were taken by Image Lab software. Quantification was conducted by ImageJ.
(§3) In accordance with the manufacturer's instructions, total RNA of cell was extracted by TRIzol (Thermo Fisher Scientific); reverse transcribed into cDNA with GoScript reverse transcription system (Promega) for RT-qPCR; RT-qPCR was conducted with THUNDERBIRD qPCR Mix (TOYOBO) and CFX384 real-time system (Bio-Rad Laboratories, Inc.).
To further study the activation of cGAS-STING DNA sensing pathway, the following key characteristics in different senescent hMPCs (including RS, HGPS and WS) and fibroblasts were detected: […] TANK binding kinase 1 (TBK1) and IFN regulating factor 3 (IRF3) as well as proinflammatory cytokines (e.g., IL1B andIL6), these factors were regarded as SASP factors.

HERVK = assay: RT-qPCR and Western blot of HERVK and senescence markers in hMPCs after HERVK activation or 5-AZA treatment; conditions: RT-qPCR
Description: as §2, §3
To activate endogenous HERVK, non-targeted control or lentivirus construct with HERVK LTR targeted sgRNA was cloned to lenti-SAM v2 (addgene #75112) through ESP3I site, and co-transfected with lenti-MPH v2 (addgene #89308). […]
HERVK-activated cell was analyzed by RT-qPCR and Western blot. […]

Nc1ncn([C@@H]2O[C@H](CO)[C@@H](O)[C@H]2O)c(=O)n1 [5-AZA, 5-azacytidine]
5 mC occupation in HERVK-LTR5HS (HERVK-LTR5HS): reduce; also recorded: decrease
SA-β-gal positive cells (hMPCs): increased
cell senescence (overall) (hMPCs): caused premature senescence; also recorded: induces senescence
clonal expansion ability (hMPCs): reduced
number of Ki67 positive cells (hMPCs): decreased
expression of SASP cytokine (cGAS-STING pathway): up-regulated
level of phosphorylated IRF3 (cGAS-STING pathway): increased
level of phosphorylated RelA (cGAS-STING pathway): increased
level of phosphorylated TBK1 (cGAS-STING pathway): increased
senescence marker p16INK4a level (HERVK): increased
HERVK RNA level (HERVK; vs untreated or non-targeting sgRNA control): increase
